This is an account of results in patent US20080280886A1, “SUBSTITUTED UREAS” (AUSPEX PHARMACEUTICALS, INC., priority 2007, published 2008).

Structures are written as SMILES.

For one data set, the system named is dopamine release. The settings on record: Li et al. 2005; cited from earlier work.
Data set [1] concerns DOI-induced head twitches. The settings on record: rodent; Vanover et al. 2006; cited from earlier work.
Data set [2] relates to hyperactivity induced by NMDA receptor antagonist MK-801. Particulars: Vanover et al. 2006; cited from earlier work.
The nature of data set [3]: In vitro liver microsomal stability assay. Type of data set: in vitro ADME. Particulars: 1 mg per mL liver microsome protein, NADPH-generating system, 5 microgram per mL compound, 37° C., 0-60 min, LC/MS/MS. On the procedure:
Liver microsomal stability assays are conducted at 1 mg per mL liver microsome protein with an NADPH-generating system in 2% NaHCO3 (2.2 mM NADPH, 25.6 mM glucose 6-phosphate, 6 units per mL glucose 6-phosphate dehydrogenase and 3.3 mM MgCl2). Test compounds are prepared as solutions in 20% acetonitrile-water and added to the assay mixture (final assay concentration 5 microgram per mL) and incubated at 37° C. Final concentration of acetonitrile in the assay should be <1%. Aliquots (50 μL) are taken out at times 0, 15, 30, 45, and 60 min, and diluted with ice cold acetonitrile (200 μL) to stop the reactions. Samples are centrifuged at 12,000 RPM for 10 min to precipitate proteins. Supernatants are transferred to microcentrifuge tubes and stored for LC/MS/MS analysis of the degradation half-life of the test compounds.
A general note: Liver microsomes are a subcellular fraction often used to study metabolism.

Regarding `CC(C)COc1ccc(CNC(=O)N(Cc2ccc(F)cc2)C2CCN(C)CC2)cc1` [Pimavanserin, 1-(4-fluoro-benzyl)-3-(4-isobutoxy-benzyl)-1-(1-methyl-piperidin-4-yl)-urea], in the data set with dopamine release, the “dopamine release when combined with haloperidol” value is “potentiate dopamine release”. The DOI-induced head twitches entry in data set [1] is on record as “reduce”. Besides, in data set [2], the “hyperactivity induced by MK-801 (dozocilpine)” value is reported as “attenuate hyperactivity”.

With `[2H]C([2H])(NC(=O)N(C1CCN(C([2H])([2H])[2H])CC1)C([2H])([2H])c1ccc(F)cc1)c1ccc(OC([2H])([2H])C(C)C)cc1` [Example 3, d9-1-(4-Fluorobenzyl)-3-(4-isobutoxybenzyl)-1-(1-methylpiperidin-4-yl)urea hemi-tartrate], the “increase in degradation half-life as compared to the non-isotopically enriched drug (Pimavanserin)” value in data set [3] turned out to be 17%.
